{
  "source": "the OPERA property sets (Mansouri et al. 2018)",
  "note": "Where a SMILES comes first, the peptide text is derived from it. The star is where a group is joined. NHtBu = CC(C)(C)N*",
  "data": [
    {"units": {"solubility": "µM"}, "values": [
      {"smiles": "CC(C)(C)C1CCCCC1", "logP": 5.04},
      {"smiles": "COC(=O)n1c(-c2cscn2)nc2ccccc21", "logP": 2.05},
      {"smiles": "COc1cccc(OC)c1OCCN(C)C", "logP": 1.05},
      {"smiles": "CCOC(=O)[C@@H](N)Cc1ccc(O)c(O)c1", "logP": 0.28},
      {"smiles": "c1ccc2[nH]c(-c3cscn3)nc2c1", "logP": 2.47},
      {"smiles": "C#CCN1C(=O)COc2cc(F)c(N3C(=O)C4=C(CCCC4)C3=O)cc21", "logP": 2.55},
      {"smiles": "C=C(C)C1CCC(C)(O)C1C", "note": "(stereo not given)", "logP": 2.87},
      {"smiles": "C#CCN(C)C(C)Cc1ccc(F)cc1", "note": "(stereo not given)", "logP": 3},
      {"smiles": "COc1ccc2cc(CCC(C)=O)ccc2c1", "logP": 3.08},
      {"smiles": "O=c1[nH]c(=O)n([C@H]2C[C@H](O)[C@@H](CO)O2)cc1I", "logP": -0.96},
      {"smiles": "NS(=O)(=O)c1nc2ccc(OCc3ccccc3)cc2s1", "logP": 3.18},
      {"smiles": "CCCCCCCCCCCCOC(=O)c1ccc(N)cc1", "solubility": 0.0158},
      {"smiles": "CC(C)COCCO", "logP": 0.75},
      {"smiles": "CN(C)C(=O)COC(=O)c1ccccc1O", "logP": 1.21},
      {"smiles": "COc1cc(CC(=O)O)ccc1O", "logP": 0.33},
      {"smiles": "Nc1ccc(S(=O)(=O)O)c(N)c1", "logP": -4.65},
      {"smiles": "Cc1cccc(C)c1C", "solubility": 626},
      {"smiles": "CCCCCCN1CC(C(=O)O)CC1=O", "note": "(stereo not given)", "logP": 1.6},
      {"smiles": "CCCCCCN1CCCC1=O", "logP": 2.6},
      {"smiles": "Cn1cnc(I)c1[N+](=O)[O-]", "logP": 1.29},
      {"smiles": "COC(=O)C(C)Oc1ccc(Oc2ccc(Cl)cc2Cl)cc1", "note": "(stereo not given)", "logP": 4.62},
      {"smiles": "NS(=O)(=O)c1cc2c(cc1Cl)N=C(CSCc1ccccc1)NS2(=O)=O", "logP": 1.73},
      {"smiles": "CC(C)NCc1ccccc1", "logP": 1.83},
      {"smiles": "CCCCn1ccc(=O)c(O)c1", "logP": 0.72},
      {"smiles": "c1ccc2cc3cc4c(ccc5ccccc54)cc3cc2c1", "logP": 6.81},
      {"smiles": "OC(CNC1COCCC1Br)Cn1ccnc1", "note": "(stereo not given)", "logP": -0.17},
      {"smiles": "CCNC(=O)Nc1ncc([N+](=O)[O-])s1", "solubility": 1390},
      {"smiles": "CC(N)CCc1ccccc1", "note": "(stereo not given)", "logP": 2.12},
      {"smiles": "CC(C)Nc1nc(Cl)nc(NCCO)n1", "logP": 0.78},
      {"smiles": "Nc1nc(=O)n([C@H]2CC[C@@H](CO)O2)cc1Br", "logP": -0.5},
      {"smiles": "O=[N+]([O-])c1ccc2c(c1)-c1ccc([N+](=O)[O-])c3cccc-2c13", "logP": 4.44},
      {"smiles": "CCOC(=O)C1=C(COCCN)NC(C)=C(C(=O)OC)C1c1ccccc1Cl", "note": "(stereo not given)", "logP": 3},
      {"smiles": "CC(=O)Oc1ccc(N(C)C(=O)C(Cl)Cl)cc1", "logP": 1.56},
      {"smiles": "C=CC(=O)NCCCN1CCSCC1", "logP": 0.54},
      {"smiles": "Clc1ccc(Cn2cncn2)cc1Cl", "logP": 2.54},
      {"smiles": "CNC(=O)NCCn1nc(-c2ccccc2)ccc1=O", "logP": 0.39},
      {"smiles": "O=P(O)(O)CCCl", "logP": -0.22},
      {"smiles": "CC(C)n1ccc(=O)c(O)c1", "logP": -0.02},
      {"smiles": "NC(=S)NN=Cc1ccc([N+](=O)[O-])o1", "logP": 1.64},
      {"smiles": "CC(C(=O)Nc1ccc([N+](=O)[O-])c(C(F)(F)F)c1)C(F)(F)F", "note": "(stereo not given)", "logP": 3.71},
      {"smiles": "c1ccc2c(c1)ccc1c3ccccc3ccc21", "logP": 5.81},
      {"smiles": "Cc1cccc(Nc2ccccc2C(=O)O)c1", "logP": 4.88},
      {"smiles": "COc1cc(N=Nc2c(Br)cc([N+](=O)[O-])cc2[N+](=O)[O-])c(NC(C)=O)c(N(CCOC(C)=O)CCOC(C)=O)c1", "logP": 4.44},
      {"smiles": "Brc1cc(Br)c(Oc2cc(Br)c(Br)c(Br)c2)cc1Br", "logP": 7.4},
      {"smiles": "CCCN1CCCC1CNC(=O)c1cc(S(N)(=O)=O)ccc1OC", "note": "(stereo not given)", "logP": 2.16},
      {"smiles": "OCc1cccc(I)c1", "logP": 2.55},
      {"smiles": "N#Cc1cc(-c2ccncc2)cnc1N1CCCC1", "logP": 2.95},
      {"smiles": "Brc1cc(Br)c(Br)c(-c2c(Br)c(Br)cc(Br)c2Br)c1Br", "logP": 5.5},
      {"smiles": "ClC=C1C2CC(C(Cl)C2Cl)C1(CCl)C(Cl)Cl", "note": "(stereo not given)", "logP": 5.45},
      {"smiles": "O=C(O)c1cc[n+]([O-])cc1", "solubility": 79100},
      {"smiles": "Cc1cc(C)cc(NCc2cnc3nc(N)nc(N)c3c2C)c1", "logP": 2.11},
      {"smiles": "Cc1cccc(C)c1C#[N+][O-]", "logP": 2.74},
      {"smiles": "CCCCN(CC)N=O", "logP": 1.63},
      {"smiles": "COCCNCc1cc2cc(S(N)(=O)=O)sc2s1", "logP": 0.32},
      {"smiles": "OCCC(F)(F)C(F)(F)C(F)(F)C(F)(F)F", "logP": 3.3},
      {"smiles": "CCCCC(O)CCC", "note": "(stereo not given)", "logP": 2.68},
      {"smiles": "O=[N+]([O-])c1cccc2c1-c1cccc3c([N+](=O)[O-])ccc-2c13", "logP": 4.44},
      {"smiles": "COP(=S)(OC)Oc1ccc(SC)cc1", "logP": 3.74},
      {"smiles": "[O-][N+](=Cc1ccccc1)c1ccccc1", "logP": 1.88},
      {"smiles": "Cc1ccc(S(=O)(=O)NC(CCC(=O)NC2CCCCC2)C(=O)O)cc1", "note": "(stereo not given)", "logP": 0.1},
      {"smiles": "CCOC1OC2OC3(C)CCC4C(C)C(OC5OC(C(=O)O)C(O)C(O)C5O)CC(C1C)C24OO3", "note": "(stereo not given)", "logP": 0.61},
      {"smiles": "N#Cc1cc(I)c(O)c(I)c1", "logP": 3.43},
      {"smiles": "Cc1ccc([N+](=O)[O-])cc1C", "logP": 2.91},
      {"smiles": "CC(=O)c1ccc2cc(C(C)C(=O)OCC(=O)N(C)C)ccc2c1", "note": "(stereo not given)", "logP": 2.05},
      {"smiles": "Clc1cc2c(Cl)c(Cl)c(Cl)c(Cl)c2c(Cl)c1Cl", "logP": 8.2},
      {"smiles": "NS(=O)(=O)c1cc2cc(CN3CCOCC3)sc2o1", "logP": 0.88},
      {"smiles": "O=C(NCc1ccc(O)cc1)C(=O)c1c[nH]c2ccc([N+](=O)[O-])cc12", "logP": 2.67},
      {"smiles": "Cc1ccc(S(=O)(=O)CC(=O)c2ccc(Cl)cc2)cc1", "logP": 3.43},
      {"smiles": "N#CC(C#N)=Cc1ccc(I)o1", "logP": 2.42},
      {"smiles": "C=COCCn1cnc2c(=N)n(C)c(=O)[nH]c21", "logP": -0.24},
      {"smiles": "COC(=O)c1ccccc1S(N)(=O)=O", "logP": 0.01},
      {"smiles": "CC(=O)NC(C)C(=O)NC(CCC(=O)O)C(=O)NC(C)(C)C", "note": "(stereo not drawn) (Ac-Ala-Glu-NHtBu; configuration not given here)", "logP": -0.67},
      {"smiles": "CC(=O)Oc1ccc(OCCN(C)C)cc1C", "logP": 1.64},
      {"smiles": "Cc1ccc(C=[N+]([O-])C(C)(C)C)cc1", "logP": 1.74},
      {"smiles": "CCCOC(=O)[C@@H](N)Cc1ccc(O)c(O)c1", "logP": 0.76}
    ]}
  ]
}
